In US20080003590A1, “Termination of Binding Parameters” (priority 2004, published 2008) one finds Kd and membrane affinity data, which are given here for 2 compounds.

The target in series [1] is human serum albumin (HSA) (Homo sapiens, UniProt P02768). The series is described as follows: biochemical.
Description: 5. Immobilization of Human Serum Albumin (HSA) on Fluorescence-Active Supports (FI-HSA)
For the immobilization of HSA, 100 mg of HSA dissolved in 10 ml of phosphate buffer (20 mM, pH 7.4) are added to 1 g of a support prepared according to 2. and rotated overhead for at least four hours. To remove free protein, this is washed with phosphate buffer, 1M NaCl in phosphate buffer and finally with PBS. The quantification of the protein immobilization is effected by supernatant analysis. The suspension is adjusted to a desired protein concentration in PBS and stored.
For the determination of the albumin binding, 200 mg of the FI-HSA support prepared in 5. were made up to a total volume of 1 ml with PBS, and similarly 200 mg of an FI-Ref prepared according to 3. were made up to 1 ml with PBS.
For the determination of the concentration-dependent quantities, the following volumes were pipetted into the wells of a 384 well UV plate (Greiner UV-plate): […]
whereby the final concentration of carbamazepine in the wells is 70 μM. […] For the determination of the concentration-dependent quantity cpre-binding, excitation spectra of the wells reference 1 and substance 1 are recorded in the “top-read” mode between 250 and 480 nm with an emission wavelength of 530 nm, and calculated from cpre-binding=log F0v(λ)/Fv(λ), where F0v(λ) and Fv(λ) are the excitation spectra of the wells reference 1 and substance 1. […]
Series [2] in a line: Determination of the membrane affinity of warfarin in the 96-well format (FI-EiPC support, internal filter effect). The settings on record: triple determination, 70 μM warfarin, FI-EiPC support in PBS. The format is physicochemical. How it is done: 4. Reconstitution of Lipid Membranes on Fluorescence-Active Supports (FI-EiPC)
For the reconstitution of lipid membranes, firstly 1 g of a support prepared according to 2. is treated with a solution of 25 mg of sodium polystyrenesulfonate in 25 ml of water in the overhead rotator and then washed three times each with water and PBS.
60 ml of a vesicle solution of 5 mg/ml EiPC (lipid extract from egg yolk) in PBS (prepared by homogenization in the Avestin Co EmulsiFlex-C5 homogenizer) are added to this support and incubated overnight. To remove excess lipid, this is washed three times with PBS and the support is then stored in PBS. The determination of the lipid concentration is effected by drying of defined volumes of suspension, detachment of the lipid from the solid body using an organic solvent, and then HPLC analysis.
Well reference 1: 100 μl FI-Ref suspension+200 μl PBS
Well substance 1: 100 μl FI-Ref suspension+170 μl PBS+30 μl warfarin solution;
Well reference 1′: 100 μl FI-EiPC suspension+200 μl PBS
Well substance 1′: 100 μl FI-EiPC suspension+170 μl PBS+30 μl warfarin solution; whereby the final concentration of warfarin in the wells is 70 μM. […]

pKd: −log10 of the molar value.

human serum albumin (HSA), sequence (P02768 25-609): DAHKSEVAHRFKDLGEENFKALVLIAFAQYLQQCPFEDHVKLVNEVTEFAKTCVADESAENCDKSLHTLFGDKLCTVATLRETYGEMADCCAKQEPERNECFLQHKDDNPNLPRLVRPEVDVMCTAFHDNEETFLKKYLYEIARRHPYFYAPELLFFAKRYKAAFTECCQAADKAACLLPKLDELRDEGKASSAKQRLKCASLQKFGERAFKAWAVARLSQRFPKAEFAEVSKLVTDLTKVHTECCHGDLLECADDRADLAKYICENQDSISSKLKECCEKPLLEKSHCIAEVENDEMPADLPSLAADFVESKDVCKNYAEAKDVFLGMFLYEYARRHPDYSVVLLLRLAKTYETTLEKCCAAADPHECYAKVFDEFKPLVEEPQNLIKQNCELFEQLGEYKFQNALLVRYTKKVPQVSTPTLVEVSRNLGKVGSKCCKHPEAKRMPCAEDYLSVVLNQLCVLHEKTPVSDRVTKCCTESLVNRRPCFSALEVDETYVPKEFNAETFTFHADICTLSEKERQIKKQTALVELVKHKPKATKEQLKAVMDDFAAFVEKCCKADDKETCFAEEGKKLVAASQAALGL

The pKd is −log10 of the Kd, conventionally taken in molar units. In series [1], `NC(=O)N1c2ccccc2C=Cc2ccccc21` [carbamazepine] had a pKd of 3.77.

In series [2], `CC(=O)CC(c1ccccc1)c1c(O)c2ccccc2oc1=O` (centres unmarked) [warfarin] displayed a membrane affinity of 1.7±0.3.
